Assay results from patent publication US9238036B2, “Pharmaceutical uses of lanosta-8,24-dien-3-ols” (priority 2008, dated 2016).

Columns and labels:
Assay type in all cases: in vivo
PKC = PKC activity on the skin of mice, ELISA; conditions: topical, FIG. 2
Experimental: (§1) In all examples that follow, 20-30 g male mice were kept in filtered-air ventilated cages, with controlled temperature (22±2° C.) and humidity (50-60%), 12 h light/12 h dark cycles, with free access to water and food. The animals remained in the lab for an adaptation period of at least 1 hour before the pharmacological tests, held between 8:00 and 17:00 h.
This was an evaluation of the effect of the compounds of the invention upon the PKC activity, on the skin of mice. The animals received the following 100 μg/ear compositions: • a positive control, namely TPA (tetradecanoylphorbol-13-acetate), 2.5 μg/ear, in a vehicle comprising a 3:1 mixture of acetone:ethanol. • a negative control, namely the vehicle, which is a 3:1 mixture of acetone:ethanol; • A mixture of 100 μg euphol and 2.5 μg TPA, per ear, in a vehicle comprising a 3:1 mixture of acetone:ethanol.
5-member groups of mice were topically applied, in the inner surface of the ears, the compositions above. The PKC activity, before and after exposure to the tested compositions, was measured using ELISA (enzyme-linked immuno sorbent assay).

mice ears = assay: Ear thickness after topical TPA (irritating effect / inflammation), mice ears; conditions: euphol 100 μg/ear with TPA 2.5 μg/ear, acetone:ethanol 3:1, FIG. 1
Experimental: as §1
A characterization of the irritating effect of certain chemical compounds was effected, by comparing the results of treating mice ears topically with: • a positive control, namely TPA (tetradecanoylphorbol-13-acetate), 2.5 μg/ear, in a vehicle comprising a 3:1 mixture of acetone:ethanol. • a negative control, namely the vehicle, which is a 3:1 mixture of acetone:ethanol; • Euphol, 100 μg/ear, a compound of the invention, in a vehicle comprising a 3:1 mixture of acetone:ethanol; • A mixture of 100 μg of euphol and 2.5 μg TPA, per ear, in a vehicle comprising a 3:1 mixture of acetone:ethanol.
5-member groups of mice were topically applied, in the inner surface of the ears, the compositions above. The thickness of the ears, before and after exposure to the tested compositions, was measured using a digital micrometer, and the responses were expressed as mμ.

mice [1] = assay: Inflammatory nociception induced by carragenan, Von Frey filament; conditions: acute; euphol 30 μg/kg oral 1 h before, dexamethasone 0.5 mg/kg s.c. 4 h before carragenan 300 μg/paw; 0.6 g Von Frey; FIGS. 3A, 3B
Experimental: as §1
The animals' nociceptive mechanical threshold was evaluated as the response frequency of paw withdrawal after ten applications of a Von Frey filament (VHF, Stoelting, Chicago, USA). […] The Von Frey filament was applied to the right hind paw, watching the criteria of (1) application perpendicular to the plantar surface with enough pressure to bend the filament, so as to ensure total pressure; (2) the animals were evaluated when all four paws were accommodated on the wire mesh; (3) a paw withdrawal response was considered when the animal removed the paw entirely from the wire mesh; (4) each animal was stimulated 10 consecutive times, with 1 second duration each stimulation; (5) each paw withdrawal was considered as 10% of a response, with 10 withdrawals corresponding to 100% response. […]
The animals were treated orally with euphol (30 μg/kg) one hour before the carragenan injection. […] Hypernociception was evaluated hourly during 8 hours with a 0.6 g Von Frey filament, as well as after 24 and 48 hours after carragenan injection.

mice [2] = assay: Persistent inflammatory nociception induced by CFA, Von Frey filament; conditions: FIGS. 4A; for mechanical hypernociception induced by CFA, acute treatment: euphol 30 mg/kg or gabapentin 70 mg/kg oral, 1 h before CFA, 0.6 g Von Frey, 4B
Experimental: as §1
The animals' nociceptive mechanical threshold was evaluated as the response frequency of paw withdrawal after ten applications of a Von Frey filament (VHF, Stoelting, Chicago, USA). The animals were individually placed in 9×7×11 cm transparent acrylic compartments over an elevated wire mesh platform, to allow access to the paw plantar surfaces. The Von Frey filament was applied to the right hind paw, watching the criteria of (1) application perpendicular to the plantar surface with enough pressure to bend the filament, so as to ensure total pressure; (2) the animals were evaluated when all four paws were accommodated on the wire mesh; (3) a paw withdrawal response was considered when the animal removed the paw entirely from the wire mesh; (4) each animal was stimulated 10 consecutive times, with 1 second duration each stimulation; (5) each paw withdrawal was considered as 10% of a response, with 10 withdrawals corresponding to 100% response. […]
Animals were treated orally with 30 mg/kg euphol or 70 mg/kg gabapentin (positive control), 1 hour before the CFA injection. The mechanical hypernociception was measured through stimulation with a 0.6 g Von Frey filament in time intervals of 1, 2, 4, 6, 8, 24 and 48 hours after CFA injection, and up to the re-establishment of the nociceptive response. […] For that, animals received daily 30 mg/kg euphol, orally, for 5 days, and hypernociception was evaluated once a day, 4 hours after the first administration. Mechanical hypernociception was evaluated until the return of the painful response. […]

mice [3] = assay: Neuropathic pain induced by partial constriction of the sciatic nerve, Von Frey filament; conditions: FIGS. 5A; for mechanical nociceptive response induced by partial constriction of the sciatic nerve, acute treatment: euphol 30 mg/kg or gabapentin 70 mg/kg oral on 4th post-operatory day, 5B; for mechanical hypernociception induced by partial constriction of the sciatic nerve, prolonged treatment: once a day for 5 days from the 6th day, 5C
Experimental: as §1
The animals' nociceptive mechanical threshold was evaluated as the response frequency of paw withdrawal after ten applications of a Von Frey filament (VHF, Stoelting, Chicago, USA). The animals were individually placed in 9×7×11 cm transparent acrylic compartments over an elevated wire mesh platform, to allow access to the paw plantar surfaces. The Von Frey filament was applied to the right hind paw, watching the criteria of (1) application perpendicular to the plantar surface with enough pressure to bend the filament, so as to ensure total pressure; (2) the animals were evaluated when all four paws were accommodated on the wire mesh; (3) a paw withdrawal response was considered when the animal removed the paw entirely from the wire mesh; (4) each animal was stimulated 10 consecutive times, with 1 second duration each stimulation; (5) each paw withdrawal was considered as 10% of a response, with 10 withdrawals corresponding to 100% response.
The procedure here employed was similar to the one described for rats (Pain, 43:205-218, 1990), modified for mice ((Pain, 76:215-222, 1998), and standardized by Bortolanza et al (Eur J Pharmacol., 453:203-208, 2002). The mice were anesthetized with 7% chloral hydrate (0.6% ml/kg […]). Then the sciatic nerve was exposed on top of the thigh about the sciatic trifurcation, and ⅓-½ of the dorsal portion was tied with a suture filament no. 8. In the false-operated group, the sciatic nerve was exposed without the tying. On the 4th post-operatory day, a group of animals was treated orally with 30 mg/kg euphol, and another group treated orally with 70 mg/kg gabapentin, as a positive control. In predetermined times after the treatment (1, 2, 4, 6, 8, 24 and 48 hours) the mechanical threshold was evaluated, through stimulation with a 0.6 Von Frey filament. To assess the effect of the prolonged treatment, the animals were daily administered euphol, from the 6th day, for 5 days and the mechanical hypernociception was evaluated once a day, 4 h after the first administration, until the return of the nociceptive response similar to the control group. After that, the prolonged treatment protocol was repeated to evaluate a possible development of tolerance to the compound.

CCCCCCCCCCCCCC(=O)O[C@@H]1[C@@H](C)[C@@]2(O)[C@@H](C=C(CO)C[C@]3(O)C(=O)C(C)=C[C@@H]23)[C@@H]2C(C)(C)[C@]12OC(C)=O [TPA, tetradecanoylphorbol-13-acetate, reference compound]
PKC activity (ELISA absorbance) vs vehicle group (PKC; TPA 2.5 μg/ear): significant increase in the PKC activity

CC(C)=CCC[C@@H](C)[C@@H]1CC[C@]2(C)C3=C(CC[C@@]12C)[C@@]1(C)CC[C@H](O)C(C)(C)[C@@H]1CC3 [euphol]
inhibitory effect on ear thickness increase (inflammation) (mice ears): significant even up to 24 hours after the treatment
PKC activity increase induced by TPA (ELISA absorbance) (PKC; 100 μg euphol + 2.5 μg TPA per ear): significantly reduces the increase in PKC activity induced by TPA
inflammatory mechanical hypernociception induced by carragenan (frequency of response, AUC) (mice [1]): significantly reduced
mechanical hypernociception induced by CFA, acute treatment (mice [2]): reduced significantly
nociceptive response caused by CFA, prolonged treatment (mice [2]; once a day for 5 days, euphol 30 mg/kg oral, 4C): inhibition of the nociceptive response caused by CFA during the 6 following days of treatment
mechanical nociceptive response induced by partial constriction of the sciatic nerve, acute treatment (mice [3]): inhibited in a significant manner
mechanical hypernociception induced by partial constriction of the sciatic nerve, prolonged treatment (mice [3]): reduced in a significant manner

NCC1(CC(=O)O)CCCCC1 [gabapentin, reference compound]
mechanical hypernociception induced by CFA, acute treatment (mice [2]): close to the effect obtained with gabapentin
mechanical nociceptive response induced by partial constriction of the sciatic nerve, acute treatment (mice [3]): inhibited in a significant manner
mechanical hypernociception induced by partial constriction of the sciatic nerve, prolonged treatment (mice [3]): reduced in a significant manner
